Results on 14 compounds are retold here after patent US20240116985A1, “STAPLED PEPTIDES AND METHODS THEREOF” (priority 2020, published 2024).

Each structure is given as a SMILES string.

Broadly, the IC50 is the concentration needed to halve the response being measured.

For the experiment, the target named is T1, full-length beta-Catenin (Uniprot ID P35222) (Homo sapiens, UniProt P35222).
T1 construct: 10 nM full-length beta-Catenin (Uniprot ID P35222)
T1 sequence (P35222 1-781): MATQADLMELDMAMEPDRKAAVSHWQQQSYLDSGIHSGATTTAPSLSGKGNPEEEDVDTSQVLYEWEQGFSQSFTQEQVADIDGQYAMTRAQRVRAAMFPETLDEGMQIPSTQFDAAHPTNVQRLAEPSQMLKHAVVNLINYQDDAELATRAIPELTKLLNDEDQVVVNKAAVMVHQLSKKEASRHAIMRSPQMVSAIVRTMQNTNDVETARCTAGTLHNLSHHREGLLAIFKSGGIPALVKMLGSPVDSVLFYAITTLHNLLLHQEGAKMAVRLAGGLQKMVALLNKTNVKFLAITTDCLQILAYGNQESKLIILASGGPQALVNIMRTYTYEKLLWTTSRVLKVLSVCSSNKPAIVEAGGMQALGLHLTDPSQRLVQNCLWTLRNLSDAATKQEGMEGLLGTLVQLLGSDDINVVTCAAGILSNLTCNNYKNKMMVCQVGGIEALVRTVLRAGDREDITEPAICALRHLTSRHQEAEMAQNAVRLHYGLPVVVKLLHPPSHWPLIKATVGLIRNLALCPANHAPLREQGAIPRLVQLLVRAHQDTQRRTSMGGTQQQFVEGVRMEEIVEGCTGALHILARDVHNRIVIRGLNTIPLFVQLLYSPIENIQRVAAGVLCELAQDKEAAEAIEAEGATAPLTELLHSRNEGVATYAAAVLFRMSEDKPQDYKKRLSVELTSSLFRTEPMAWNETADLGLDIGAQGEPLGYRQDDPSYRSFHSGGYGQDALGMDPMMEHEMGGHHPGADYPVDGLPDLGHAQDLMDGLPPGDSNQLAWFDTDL
Nature of the experiment: Fluorescence polarization IC50 (beta-catenin / 5FAM-TCF4 10-53 competition). Type of experiment: binding. The following applies: fluorescence polarization; read-out: beta-Catenin FP IC50.

`CC(=O)N1CCC[C@]12CC=CCCCC1(CCCC=CCCCOC(=O)N3CC[C@@](C(=O)N[C@@H](Cc4ccsc4)C(=O)N[C@@H](Cc4csc5ccccc45)C(=O)N[C@@H](CC(C)C)C(N)=O)(C3)NC(=O)[C@H](CC(N)=O)NC(=O)[C@H](Cc3ccccc3)NC(=O)[C@H](C)NC(=O)[C@H](C)NC(=O)[C@H]([C@@H](C)O)NC(=O)[C@H](CC(N)=O)NC1=O)NC(=O)[C@H](CC(C)(C)C)NC(=O)[C@H](CC(=O)O)NC2=O` (stereo partly drawn) [I-1881, Ac-PL3-Asp-Npg-B5-Asn-Thr-Ala-Ala-Phe-Asn-PyrS2-3Thi-BztA-Leu-NH2]: the IC50 amounted to 743 nM.

On to `CC(=O)N1CCC[C@]12CC=CCCCC1(CCCC=CCCCOC(=O)N3CC[C@@](C(=O)N[C@@H](Cc4ccsc4)C(=O)N[C@@H](Cc4csc5ccccc45)C(=O)N[C@@H](CCC(N)=O)C(N)=O)(C3)NC(=O)[C@H](CCCNC(=N)N)NC(=O)[C@H](Cc3ccccc3)NC(=O)[C@H](C)NC(=O)[C@H](C)NC(=O)[C@H]([C@@H](C)O)NC(=O)[C@H](CC(N)=O)NC1=O)NC(=O)[C@H](CC(C)(C)C)NC(=O)[C@H](CC(=O)O)NC2=O` (stereo partly drawn) [I-1882, Ac-PL3-Asp-Npg-B5-Asn-Thr-Ala-Ala-Phe-Arg-PyrS2-3Thi-BztA-Gln-NH2], for which the concentration for half-maximal inhibition (IC50) was determined as 397 nM.

For `CC(=O)N1CCC[C@]12CC=CCCCC1(CCCC=CCCCOC(=O)N3CC[C@@](C(=O)N[C@@H](Cc4ccsc4)C(=O)N[C@@H](Cc4csc5ccccc45)C(=O)N[C@@H](CCC(N)=O)C(N)=O)(C3)NC(=O)[C@H](CCCNC(=N)N)NC(=O)[C@H](Cc3ccccc3)NC(=O)[C@H](C)NC(=O)[C@H](C)NC(=O)[C@H]([C@@H](C)O)NC(=O)[C@H](CC(N)=O)NC1=O)NC(=O)[C@H](CC(C)(C)C)NC(=O)[C@H](CC(=O)O)NC2=O` (stereo partly drawn) [I-1883, Ac-PL3-Asp-Npg-B5-Asn-Thr-Ala-Ala-Phe-Arg-PyrS2-3Thi-BztA-Gln-NH2], the IC50 is 884 nM.

On to `CC(=O)N1CCC[C@]12CC=CCCCC1(CCCC=CCCCOC(=O)N3CC[C@@](C(=O)N[C@@H](Cc4ccsc4)C(=O)N[C@@H](Cc4csc5ccccc45)C(=O)N[C@@H](CCC(N)=O)C(N)=O)(C3)NC(=O)[C@H](CC(N)=O)NC(=O)[C@H](Cc3ccccc3)NC(=O)[C@H](C)NC(=O)[C@H](C)NC(=O)[C@H]([C@@H](C)O)NC(=O)[C@H](CC(N)=O)NC1=O)NC(=O)[C@H](CC1CCCCC1)NC(=O)[C@H](CC(=O)O)NC2=O` (stereo partly drawn) [I-1884, Ac-PL3-Asp-Cha-B5-Asn-Thr-Ala-Ala-Phe-Asn-PyrS2-3Thi-BztA-Gln-NH2], for which the IC50 is 249 nM.

In the case of `CC(=O)N1CCC[C@]12CC=CCCCC1(CCCC=CCCCOC(=O)N3CC[C@@](C(=O)N[C@@H](Cc4ccsc4)C(=O)N[C@@H](Cc4csc5ccccc45)C(=O)N[C@@H](CCC(N)=O)C(N)=O)(C3)NC(=O)[C@H](CC(N)=O)NC(=O)[C@H](Cc3ccccc3)NC(=O)[C@H](C)NC(=O)[C@H](C)NC(=O)[C@H]([C@@H](C)O)NC(=O)[C@H](CC(N)=O)NC1=O)NC(=O)[C@H](CC1CCCCC1)NC(=O)[C@H](CC(=O)O)NC2=O` (stereo partly drawn) [I-1885, Ac-PL3-Asp-Cha-B5-Asn-Thr-Ala-Ala-Phe-Asn-PyrS2-3Thi-BztA-Gln-NH2], the IC50 was determined as 255 nM.

`CC(=O)N1CCC[C@]12CC=CCCCC1(CCCC=CCCCOC(=O)N3CC[C@@](C(=O)N[C@@H](Cc4ccsc4)C(=O)N[C@@H](Cc4csc5ccccc45)C(=O)N[C@@H](CCC(N)=O)C(N)=O)(C3)NC(=O)[C@H](CC(N)=O)NC(=O)[C@H](Cc3ccccc3)NC(=O)[C@H](C)NC(=O)[C@H](C)NC(=O)[C@H](CCCNC(=N)N)NC(=O)[C@H](CC(N)=O)NC1=O)NC(=O)[C@H](CC(C)(C)C)NC(=O)[C@H](CC(=O)O)NC2=O` (stereo partly drawn) [I-1892, Ac-PL3-Asp-Npg-B5-Asn-Arg-Ala-Ala-Phe-Asn-PyrS2-3Thi-BztA-Gln-NH2]: the half-inhibitory concentration (IC50) was found to be 1420 nM.

As to `CC(=O)N1CCC[C@]12CC=CCCCC1(CCCC=CCCCOC(=O)N3CC[C@@](C(=O)N[C@@H](CC4CCCC4)C(=O)N[C@@H](Cc4csc5ccccc45)C(=O)N[C@@H](CO)C(N)=O)(C3)NC(=O)[C@H](CC(C)C)NC(=O)[C@H](Cc3ccccc3)NC(=O)[C@H](C)NC(=O)[C@H](C)NC(=O)[C@H](Cc3cccc(C(=O)O)c3)NC(=O)[C@H](CC(=O)O)NC1=O)NC(=O)[C@H](CC(C)(C)C)NC(=O)[C@H](CC(=O)O)NC2=O` (stereo partly drawn) [I-1896, Ac-PL3-Asp-Npg-B5-Asp-3COOHF-Ala-Ala-Phe-Leu-PyrS2-CypA-BztA-Ser-NH2], the IC50 is 75 nM.

For `CC(=O)N1CCC[C@]12CC=CCCCC1(CCCC=CCCCOC(=O)N3CC[C@@](C(=O)N[C@@H](Cc4ccccc4Cl)C(=O)N[C@@H](Cc4csc5ccccc45)C(=O)N[C@@H](CO)C(=O)N[C@@H](C)CO)(C3)NC(=O)[C@H](CC(C)C)NC(=O)[C@H](Cc3ccccc3)NC(=O)[C@H](C)NC(=O)[C@H](C)NC(=O)[C@H](Cc3cccc(C(=O)O)c3)NC(=O)[C@H](CC(=O)O)NC1=O)NC(=O)[C@H](CC(C)(C)C)NC(=O)[C@H](CC(=O)O)NC2=O` (stereo partly drawn) [I-1907, Ac-PL3-Asp-Npg-B5-Asp-3COOHF-Ala-Ala-Phe-Leu-PyrS2-2C1F-BztA-Ser-Alao1], the IC50 was 23 nM.

With `CC(=O)N1CCC[C@]12CC=CCCCC1(CCCC=CCCCOC(=O)N3CC[C@@](C(=O)N[C@@H](Cc4ccsc4)C(=O)N[C@@H](Cc4csc5ccccc45)C(=O)N[C@@H](Cc4ccccc4)C(N)=O)(C3)NC(=O)[C@H](CC(C)C)NC(=O)[C@H](Cc3ccccc3)NC(=O)[C@H](C)NC(=O)[C@H](Cc3c[nH]cn3)NC(=O)[C@H](Cc3cccc(C(=O)O)c3)NC(=O)[C@H](CC(=O)O)NC1=O)NC(=O)[C@H](CC(C)(C)C)NC(=O)[C@H](CC(=O)O)NC2=O` (stereo partly drawn) [I-1910, Ac-PL3-Asp-Npg-B5-Asp-3COOHF-His-Ala-Phe-Leu-PyrS2-3Thi-BztA-Phe-NH2], the IC50 worked out at 17 nM.

On to `CC(=O)N1CCC[C@]12CC=CCCCC1(CCCC=CCCCOC(=O)N3CC[C@@](C(=O)N[C@@H](Cc4ccsc4)C(=O)N[C@@H](Cc4csc5ccccc45)C(=O)N[C@@H](CCC(N)=O)C(N)=O)(C3)NC(=O)[C@H](CC(C)C)NC(=O)[C@H](Cc3ccccc3)NC(=O)[C@H](C)NC(=O)[C@H](C)NC(=O)[C@H](CN3CCC[C@H](C(=O)O)C3)NC(=O)[C@H](CC(=O)O)NC1=O)NC(=O)[C@H](CC(C)(C)C)NC(=O)[C@H](CC(=O)O)NC2=O` (stereo partly drawn) [I-1921, Ac-PL3-Asp-Npg-B5-Asp-S3COOPipA-Ala-Ala-Phe-Leu-PyrS2-3Thi-BztA-Gln-NH2], for which the half-inhibitory concentration (IC50) is 22 nM.

For `CC(=O)N1CCC[C@]12CC=CCCCC1(CCCC=CCCCOC(=O)N3CC[C@@](C(=O)N[C@@H](Cc4ccccc4)C(=O)N[C@@H](Cc4csc5ccccc45)C(=O)N[C@@H](CCO)C(N)=O)(C3)NC(=O)[C@H](CCO)NC(=O)[C@H](Cc3ccccc3)NC(=O)[C@H](C)NC(=O)[C@H](CCCCNC(C)C)NC(=O)[C@H](CCC(N)=O)NC(=O)[C@H](CC(=O)O)NC1=O)NC(=O)[C@H](CC1CCCCC1)NC(=O)[C@H](CC(N)=O)NC2=O` (stereo partly drawn) [I-1922, Ac-PL3-Asn-Cha-B5-Asp-Gln-iPrLys-Ala-Phe-Hse-PyrS2-Phe-BztA-Hse-NH2], the half-inhibitory concentration (IC50) amounted to 457 nM.

For `CC(=O)N1CCC[C@]12CC=CCCCC1(CCCC=CCCCOC(=O)N3CC[C@@](C(=O)N[C@@H](Cc4ccccc4)C(=O)N[C@@H](Cc4csc5ccccc45)C(=O)N[C@@H](CCO)C(N)=O)(C3)NC(=O)[C@H](CC(N)=O)NC(=O)[C@H](Cc3cccc(Cl)c3)NC(=O)[C@H](C)NC(=O)[C@H](CCCCNC(C)C)NC(=O)[C@H](CCC(N)=O)NC(=O)[C@H](CC(=O)O)NC1=O)NC(=O)[C@H](CC1CCCCC1)NC(=O)[C@H](CC(N)=O)NC2=O` (stereo partly drawn) [I-1924, Ac-PL3-Asn-Cha-B5-Asp-Gln-iPrLys-Ala-3C1F-Asn-PyrS2-Phe-BztA-Hse-NH2], the half-inhibitory concentration (IC50) was found to be 1610 nM.

With `CC(=O)N1CCC[C@]12CC=CCCCC1(CCCC=CCCCOC(=O)N3CC[C@@](C(=O)N[C@@H](Cc4ccccc4)C(=O)N[C@@H](Cc4csc5ccccc45)C(=O)N[C@@H](CCO)C(N)=O)(C3)NC(=O)[C@H](CC(N)=O)NC(=O)[C@H](Cc3cccc(C(N)=O)c3)NC(=O)[C@H](C)NC(=O)[C@H](CCCCNC(C)C)NC(=O)[C@H](CCC(N)=O)NC(=O)[C@H](CC(=O)O)NC1=O)NC(=O)[C@H](CC1CCCCC1)NC(=O)[C@H](CC(N)=O)NC2=O` (stereo partly drawn) [I-1925, Ac-PL3-Asn-Cha-B5-Asp-Gln-iPrLys-Ala-3cbmf-Asn-PyrS2-Phe-BztA-Hse-NH2], the concentration for half-maximal inhibition (IC50) was 475 nM.

Consider `COc1cccc(C[C@@H]2NC(=O)[C@H](C)NC(=O)[C@H](CCCCNC(C)C)NC(=O)[C@H](CCC(N)=O)NC(=O)[C@H](CC(=O)O)NC(=O)C3(CCCC=CCCCOC(=O)N4CC[C@@](C(=O)N[C@@H](Cc5ccccc5)C(=O)N[C@@H](Cc5csc6ccccc56)C(=O)N[C@@H](CCO)C(N)=O)(C4)NC(=O)[C@H](CC(N)=O)NC2=O)CCCC=CC[C@]2(CCCN2C(C)=O)C(=O)N[C@@H](CC(N)=O)C(=O)N[C@@H](CC2CCCCC2)C(=O)N3)c1` (stereo partly drawn) [I-1926, Ac-PL3-Asn-Cha-B5-Asp-Gln-iPrLys-Ala-3OMeF-Asn-PyrS2-Phe-BztA-Hse-NH2], for which the half-inhibitory concentration (IC50) was determined as 417 nM.
